# Test results: patent US20140073651A1, “BENZAMIDE DERIVATIVES AS P2X7 RECEPTOR ANTAGONISTS” (Actelion Pharmaceuticals Ltd., priority 2011, published 2014)
# Biological target: T1, human recombinant P2X7 receptor (Homo sapiens, UniProt Q99572)
# T1 construct: expressed in transfected cells
# T1 sequence (Q99572 1-595): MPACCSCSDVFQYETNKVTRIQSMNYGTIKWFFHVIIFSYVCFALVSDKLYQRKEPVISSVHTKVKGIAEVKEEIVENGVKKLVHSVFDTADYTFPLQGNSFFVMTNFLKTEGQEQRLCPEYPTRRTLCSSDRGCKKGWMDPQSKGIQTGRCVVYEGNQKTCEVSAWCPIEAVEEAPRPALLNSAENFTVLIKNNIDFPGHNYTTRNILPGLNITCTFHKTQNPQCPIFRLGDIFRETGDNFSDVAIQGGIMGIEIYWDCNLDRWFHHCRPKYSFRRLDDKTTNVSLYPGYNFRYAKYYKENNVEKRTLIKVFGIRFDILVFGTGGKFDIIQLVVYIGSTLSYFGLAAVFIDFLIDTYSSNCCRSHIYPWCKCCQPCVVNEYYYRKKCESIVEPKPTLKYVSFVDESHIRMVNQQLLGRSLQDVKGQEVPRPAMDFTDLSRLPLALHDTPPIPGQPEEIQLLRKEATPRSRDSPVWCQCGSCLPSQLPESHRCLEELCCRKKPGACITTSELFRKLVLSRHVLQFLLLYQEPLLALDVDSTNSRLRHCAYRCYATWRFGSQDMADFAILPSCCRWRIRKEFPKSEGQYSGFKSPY
# Test: YO-PRO assay (YO-PRO-1 uptake) in HEK cells stably expressing P2X7
# Type: cell-based
# Conditions: HEK-293 cells expressing human recombinant P2X7 receptor; ATP 250 μM, 90 minutes; YO-PRO-1 fluorescence (FLIPR tetra); read-out: IC50 (antagonistic activity with respect to the P2X7 receptor)
# How it was run: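 Antagonist serially diluted (duplicates) on P2X7-expressing HEK cells in buffer with 0.5 μM YO-PRO-1; dye uptake followed on FLIPR Tetra over four time points. IC50 from maximum fluorescence intensity versus compound concentration.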
row,SMILES,IC50 [nM]
1,"O=C(NCC1(O)CCCCC1)c1cc(Oc2cncc(Cl)n2)ccc1Cl [Example 122, 2-Chloro-5-(6-chloro-pyrazin-2-yloxy)-N-(1-hydroxy-cyclohexylmethyl)-benzamide]",101
2,"COc1ccnc(N(C)c2ccc(Cl)c(C(=O)NCC3(O)CCCCC3)c2)n1 [Example 74, 2-Chloro-N-(1-hydroxy-cyclohexylmethyl)-5-[(4-methoxy-pyrimidin-2-yl)-methyl-amino]-benzamide]",280
3,"CCN(c1ccc(Cl)c(C(=O)NCC2(O)CCCCC2)c1)c1cc[nH]c(=O)n1 [Example 21, 2-Chloro-5-[ethyl-(2-oxo-1,2-dihydro-pyrimidin-4-yl)-amino]-N-(1-hydroxy-cyclohexylmethyl)-benzamide]",17
4,"CN(c1ccc(Cl)c(C(=O)NCC2(O)CCCCCCC2)c1)c1ccnc(=O)[nH]1 [Example 48, 2-Chloro-N-(1-hydroxy-cyclooctylmethyl)-5-[methyl-(2-oxo-2,3-dihydro-pyrimidin-4-yl)-amino]-benzamide]",15
5,"O=C(NCC1(O)CCCCC1)c1cc(Nc2ccnc(O)n2)ccc1Cl [Example 16, 2-Chloro-N-(1-hydroxy-cyclohexylmethyl)-5-(2-hydroxypyrimidin-4-ylamino)-benzamide]",73
6,"COCCn1c(N(C)c2ccc(Cl)c(C(=O)NCC3(O)CCCCC3)c2)cccc1=O [Example 98, 2-Chloro-N-(1-hydroxy-cyclohexylmethyl)-5-{[1-(2-methoxy-ethyl)-6-oxo-1,6-dihydro-pyridin-2-yl]-methyl-amino}-benzamide]",332
7,"CSc1nccc(Nc2ccc(Cl)c(C(=O)N[C@H](CO)C3CCCCC3)c2)n1 [Example 60, 2-Chloro-N—((S)-1-cyclohexyl-2-hydroxy-ethyl)-5-(2-methylsulfanyl-pyrimidin-4-ylamino)-benzamide]",1030
8,"CN(c1ccc(Cl)c(C(=O)N[C@H](CO)C2CCCCC2)c1)c1ccnc(Cl)n1 [Example 43, 2-Chloro-5-[(2-chloro-pyrimidin-4-yl)-methyl-amino]-N—((S)-1-cyclohexyl-2-hydroxy-ethyl)-benzamide]",136
9,"CN(C)c1nccc(Oc2ccc(Cl)c(C(=O)NCC3(O)CCCCC3)c2)n1 [Example 117, 2-Chloro-5-(2-dimethylamino-pyrimidin-4-yloxy)-N-(1-hydroxy-cyclohexylmethyl)-benzamide]",427
10,"CN(c1ccc(Cl)c(C(=O)NCC2(C(N)=O)CCCCC2)c1)c1ccnc(=O)[nH]1 [Example 54, N-(1-Carbamoyl-cyclohexylmethyl)-2-chloro-5-[methyl-(2-oxo-2,3-dihydro-pyrimidin-4-yl)-amino]-benzamide]",231
11,"Cc1ccc(N(C)c2cc[nH]c(=O)n2)cc1C(=O)NCC1(O)CCCCC1 [Example 155, N-(1-Hydroxy-cyclohexylmethyl)-2-methyl-5-[methyl-(2-oxo-1,2-dihydro-pyrimidin-4-yl)-amino]-benzamide]",199
12,"COc1cc(N(C)c2ccc(Cl)c(C(=O)NCC3(O)CCCCC3)c2)ncn1 [Example 67, 2-Chloro-N-(1-hydroxy-cyclohexylmethyl)-5-[(6-methoxy-pyrimidin-4-yl)-methyl-amino]-benzamide]",337
13,"CN(c1ccc(Cl)c(C(=O)NCC2(O)CCCCC2)c1)c1ccnn1C [Example 101, 2-Chloro-N-(1-hydroxy-cyclohexylmethyl)-5-[methyl-(2-methyl-2H-pyrazol-3-yl)-amino]-benzamide]",319
14,"CN(c1ccc(Cl)c(C(=O)NCC2(O)CCCCC2)c1)c1cc(=O)[nH]cn1 [Example 68, 2-Chloro-N-(1-hydroxy-cyclohexylmethyl)-5-[methyl-(6-oxo-1,6-dihydro-pyrimidin-4-yl)-amino]-benzamide]",288
15,"CN(c1ccccc1)c1ccc(Cl)c(C(=O)NCC2(O)CCCCC2)c1 [Example 2, 2-Chloro-N-(1-hydroxy-cyclohexylmethyl)-5-(methyl-phenyl-amino)-benzamide]",315
16,"O=C(NCC1(O)CCCCC1)c1cc(Oc2ccnc(Cl)c2)ccc1Cl [Example 104, 2-Chloro-5-(2-chloro-pyridin-4-yloxy)-N-(1-hydroxy-cyclohexylmethyl)-benzamide]",100
17,"COc1cncc(Oc2ccc(Cl)c(C(=O)NCC3(O)CCCCC3)c2)n1 [Example 123, 2-Chloro-N-(1-hydroxy-cyclohexylmethyl)-5-(6-methoxy-pyrazin-2-yloxy)-benzamide]",123
18,"O=C(NCC1(O)CCCCC1)c1cc(Oc2ccnc(Cl)n2)ccc1Cl [Example 115, 2-Chloro-5-(2-chloro-pyrimidin-4-yloxy)-N-(1-hydroxy-cyclohexylmethyl)-benzamide]",191

row,SMILES,IC50 [nM]
1,"CSc1nccc(Cc2ccc(Cl)c(C(=O)NCC3(O)CCCCC3)c2)n1 [Example 146, 2-Chloro-N-(1-hydroxy-cyclohexylmethyl)-5-(2-methylsulfanyl-pyrimidin-4-ylmethyl)-benzamide]",400
2,"O=C(NCC1(O)CCCCC1)c1cc(Nc2ccccc2)ccc1Cl [Example 1, 2-Chloro-N-(1-hydroxy-cyclohexylmethyl)-5-phenylamino-benzamide]",111
3,"CN(c1ccc(Cl)c(C(=O)NCC2(O)CCCCC2)c1)c1ccnc(=O)n1C [Example 18, 2-Chloro-N-(1-hydroxy-cyclohexylmethyl)-5-[methyl-(3-methyl-2-oxo-2,3-dihydro-pyrimidin-4-yl)-amino]-benzamide]",106
4,"COCCN(c1ccc(Cl)c(C(=O)NCC2(O)CCCCC2)c1)c1ccnc(Cl)n1 [Example 32, 2-Chloro-5-[(2-chloro-pyrimidin-4-yl)-(2-methoxy-ethyl)-amino]-N-(1-hydroxy-cyclohexylmethyl)-benzamide]",531
5,"O=C(NCC1(O)CCCCC1)c1cc(S(=O)(=O)c2ccccn2)ccc1Cl [Example 134, 2-Chloro-N-(1-hydroxy-cyclohexylmethyl)-5-(pyridine-2-sulfonyl)-benzamide]",105
6,"Cn1cccc(Nc2ccc(Cl)c(C(=O)NCC3(O)CCCCC3)c2)c1=O [Example 99, 2-Chloro-N-(1-hydroxy-cyclohexylmethyl)-5-(1-methyl-2-oxo-1,2-dihydro-pyridin-3-ylamino)-benzamide]",148
7,"CN(c1ccc(Cl)c(C(=O)NCC2(O)CCCCC2)c1)c1ccccc1F [Example 5, 2-Chloro-5-[(2-fluoro-phenyl)-methyl-amino]-N-(1-hydroxy-cyclohexylmethyl)-benzamide]",531
8,"COc1nccc(Oc2ccc(Cl)c(C(=O)NCC3(O)CCCCC3)c2)n1 [Example 120, 2-Chloro-N-(1-hydroxy-cyclohexylmethyl)-5-(2-methoxy-pyrimidin-4-yloxy)-benzamide]",111
9,"CNc1cncc(Oc2ccc(Cl)c(C(=O)NCC3(O)CCCCC3)c2)n1 [Example 124, 2-Chloro-N-(1-hydroxy-cyclohexylmethyl)-5-(6-methylamino-pyrazin-2-yloxy)-benzamide]",163
10,"CNc1cccc(Oc2ccc(Cl)c(C(=O)NCC3(O)CCCCC3)c2)n1 [Example 109, 2-Chloro-N-(1-hydroxy-cyclohexylmethyl)-5-(6-methylamino-pyridin-2-yloxy)-benzamide]",53
11,"CC(O)(c1ccc(Cl)c(C(=O)NCC2(O)CCCCC2)c1)c1cc[nH]c(=O)n1 (single isomer, unassigned) [Example 158]",66
12,"O=C(NCC1(O)CCCCC1)c1cc(N(CC2CCCC2)c2ccnc(Cl)n2)ccc1Cl [Example 35, 2-Chloro-5-[(2-chloro-pyrimidin-4-yl)-cyclopentylmethyl-amino]-N-(1-hydroxy-cyclohexylmethyl)-benzamide]",367
13,"CN(c1ccc(Cl)c(C(=O)NCC2(O)CCCC2)c1)c1ccnc(=O)[nH]1 [Example 50, 2-Chloro-N-(1-hydroxy-cyclopentylmethyl)-5-[methyl-(2-oxo-2,3-dihydro-pyrimidin-4-yl)-amino]-benzamide]",258
14,"CNc1nccc(N(C)c2ccc(Cl)c(C(=O)NCC3(O)CCCCC3)c2)n1 [Example 14, 2-Chloro-N-(1-hydroxy-cyclohexylmethyl)-5-[methyl-(2-methylamino-pyrimidin-4-yl)-amino]-benzamide]",127
15,"O=C(NCC1(O)CCC(F)(F)CC1)c1cc(Cc2cc[nH]c(=O)n2)ccc1Cl [Example 149, 2-Chloro-N-(4,4-difluoro-1-hydroxy-cyclohexylmethyl)-5-(2-oxo-1,2-dihydro-pyrimidin-4-ylmethyl)-benzamide]",33
16,"CC(C)CN(c1ccc(Cl)c(C(=O)NCC2(O)CCCCC2)c1)c1cc[nH]c(=O)n1 [Example 27, 2-Chloro-N-(1-hydroxy-cyclohexylmethyl)-5-[isobutyl-(2-oxo-1,2-dihydro-pyrimidin-4-yl)-amino]-benzamide]",30
17,"CN(c1ccc(Cl)c(C(=O)NCC2(O)CCCCC2)c1)c1ccc(F)cc1F [Example 7, 2-Chloro-5-[(2,4-difluoro-phenyl)-methyl-amino]-N-(1-hydroxy-cyclohexylmethyl)-benzamide]",876
